The assay addresses P2X7 receptor (Homo sapiens (Human), UniProt Q99572). In words: P2X7 FLIPR assay: antagonism of BzATP response in 293 HEK cells stably expressing P2X7 receptor. The class given is cell-based. Particulars: FLIPR fluorescence (Fluo-4), agonist BzATP, 293 HEK cells stably transfected with P2X7 receptor. A digest of the protocol:
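Antagonist IC50 derived from FLIPR Tetra Fluo-4 calcium signal evoked by BzATP. Compound pre-incubation was 30 min at room temperature on P2X7-expressing HEK293 cells, seeded 24 h before in low-serum medium and dye-loaded 30 min at 37 °C then 30 min at RT.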

Each structure is given as a SMILES string.

P2X7 receptor, sequence (Q99572 whole entry): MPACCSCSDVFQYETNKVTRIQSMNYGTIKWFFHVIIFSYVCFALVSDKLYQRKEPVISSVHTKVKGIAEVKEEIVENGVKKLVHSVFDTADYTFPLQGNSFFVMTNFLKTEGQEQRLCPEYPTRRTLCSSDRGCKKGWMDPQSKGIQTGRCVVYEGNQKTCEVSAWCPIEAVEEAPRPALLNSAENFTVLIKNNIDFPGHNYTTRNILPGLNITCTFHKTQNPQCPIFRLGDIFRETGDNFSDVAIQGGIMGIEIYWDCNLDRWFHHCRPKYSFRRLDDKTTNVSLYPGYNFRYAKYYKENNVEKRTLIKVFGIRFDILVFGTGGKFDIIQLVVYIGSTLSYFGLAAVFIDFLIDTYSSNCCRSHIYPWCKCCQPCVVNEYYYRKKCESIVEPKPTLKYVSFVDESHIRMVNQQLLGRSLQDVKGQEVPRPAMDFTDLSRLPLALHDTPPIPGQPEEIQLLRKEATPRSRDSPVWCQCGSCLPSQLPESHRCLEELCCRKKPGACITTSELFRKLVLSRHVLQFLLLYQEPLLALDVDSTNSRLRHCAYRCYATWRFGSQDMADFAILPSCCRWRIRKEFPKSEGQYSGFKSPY

One may read the IC50 as the point on the concentration scale where inhibition reaches its midpoint. Read a high IC50 as weaker potency in that assay. In turn, `Cn1cc(C(CNC(=O)c2cccc(Cl)c2Cl)N2CCC(F)(F)CC2)cn1` (single isomer, unassigned; (+)) [(+)2,3-dichloro-N-[2-(4,4-difluoro-1-piperidyl)-2-(1-methylp] [(+)2,3-dichloro-N-(2-(4,4-difluoropiperidin-1-yl)-2-(1-methyl-1H-pyrazol-4-yl)ethyl)benzamide] registered an IC50 of 12 nM. `O=C(NCC(c1cnc(C(F)(F)F)nc1)N1CCOCC1)c1cccc(Cl)c1Cl` (stereo not drawn) [2,3-dichloro-N-[2-morpholino-2-[2-(trifluoromethyl)pyrimidin] [2,3-Dichloro-N-[2-morpholino-2-[2-(trifluoromethyl)pyrimidin-5-yl]ethyl]benzamide] had a half-maximal inhibitory concentration (IC50) of 8.2 nM. This IC50 and that of the compound before are within 1.5-fold of each other. The result for `N#Cc1ccc(Cl)c(C(=O)NCC(c2ccc(Cl)cc2)N2CCOCC2)c1` (single isomer, unassigned; (+)) [(+)2-chloro-N-[2-(4-chlorophenyl)-2-morpholino-ethyl]-5-cyan] [(+)2-chloro-N-(2-(4-chlorophenyl)-2-morpholinoethyl)-5-cyanobenzamide] reads 23 nM; that for `CC(C)S(=O)(=O)c1ccc(Cl)c(C(=O)NCC(c2ccc(Cl)cc2)N2CCOCC2)c1` (single isomer, unassigned; (-)) [(−)2-chloro-N-(2-(4-chlorophenyl)-2-morpholinoethyl)-5-(isopropylsulfonyl)benzamide], 47 nM. The compound `O=C(NCC(c1cnc(C(F)(F)F)nc1)N1CCC(F)CC1)c1ccccc1Cl` (single isomer, unassigned; (-)) [(−)2-chloro-N-[2-(4-fluoro-1-piperidyl)-2-[2-(trifluoromethy] [(−)2-chloro-N-(2-(4-fluoropiperidin-1-yl)-2-(2-(trifluoromethyl)pyrimidin-5-yl)ethyl)benzamide] returned an IC50 of 13 nM.

Regarding `Cc1ncc(C(CNC(=O)c2ccccc2Cl)N2CCC(F)CC2)cn1` (single isomer, unassigned; (+)) [(+)2-chloro-N-[2-(4-fluoro-1-piperidyl)-2-(2-methylpyrimidin] [(+)2-chloro-N-(2-(4-fluoropiperidin-1-yl)-2-(2-methylpyrimidin-5-yl)ethyl)benzamide], the 50% inhibitory concentration (IC50) was 50 nM. Then `O=C(NCC(c1cnc(C(F)(F)F)nc1)N1CCC(F)(F)CC1)c1cc(F)cc(Cl)c1Cl` (single isomer, unassigned; (-)) [(−)2,3-dichloro-N-[2-(4,4-difluoro-1-piperidyl)-2-[2-(triflu] [(−)2,3-dichloro-5-fluoro-N-(2-(4,4-difluoropiperidin-1-yl)-2-(2-(trifluoromethyl)pyrimidin-5-yl)ethyl)benzamide], with 2.2 nM; and `Cc1ncc(C(CNC(=O)c2ccccc2Cl)N2CCCCC2)cn1` (single isomer, unassigned; (-)) [(−)2-chloro-N-[2-(2-methylpyrimidin-5-yl)-2-(1-piperidyl)eth] [(−)2-chloro-N-(2-(2-methylpyrimidin-5-yl)-2-(piperidin-1-yl)ethyl)benzamide], with 120 nM; and `O=C(NCC(c1ccc(Cl)cc1)N1CCCC1)c1cccc(Cl)c1Cl` (stereo not drawn) [2,3-dichloro-N-(2-(4-chlorophenyl)-24 pyrrolidin-1-yl)ethyl)benzamide], with 1800 nM. Compound `COc1ccc(C(CNC(=O)c2cccc(C)c2C)N2CCCCC2)cc1` (stereo not drawn) [N-[2-(4-Methoxy-phenyl)-2-piperidin-1-yl-ethyl]-2,3-dimethyl-benzamide] displayed an IC50 of 420 nM.

Compound `Cc1cccc(C(=O)NCC(c2ccc(Cl)cc2)N2CCC(F)(F)CC2)c1C` (stereo not drawn) [N-[2-(4-Chloro-phenyl)-2-(4,4-difluoro-piperidin-1-yl)-ethyl]-2,3-dimethyl-benzamide] had a concentration for half-maximal inhibition (IC50) of 3.6 nM.

Turning to `O=C(NCC(c1cnc(C(F)(F)F)nc1)N1CCC(F)CC1)c1cccc(Cl)c1Cl` (single isomer, unassigned; (+)) [(+)2,3-dichloro-N-[2-(4-fluoro-1-piperidyl)-2-[2-(trifluorom] [(+)2,3-dichloro-N-(2-(4-fluoropiperidin-1-yl)-2-(2-(trifluoromethyl)pyrimidin-5-yl)ethyl)benzamide], the IC50 amounted to 3.5 nM.

`Cc1ncc(C(CNC(=O)c2cccc(F)c2Cl)N2CCC(F)(F)CC2)cn1` (single isomer, unassigned; (+)) [(+)2-chloro-N-[2-(4,4-difluoro-1-piperidyl)-2-(2-methylpyrim] [(+)2-chloro-3-fluoro-N-(2-(4,4-difluoropiperidin-1-yl)-2-(2-methylpyrimidin-5-yl)ethyl)benzamide] returned an IC50 of 15 nM. The result for `Cc1ncc(C(CNC(=O)c2cccc(Cl)c2Cl)N2CCCCC2C(C)C)cn1` (stereo not drawn) [2,3-dichloro-N-(2-(2-isopropylpiperidin-1-yl)-2-(2-methylpyrimidin-5-yl)ethyl)benzamide] reads 1900 nM.

In turn, `Cc1ncc(C(CNC(=O)c2cccc(Cl)c2Cl)N2CCC(F)CC2)cn1` (single isomer, unassigned; (+)) [(+)2,3-dichloro-N-[2-(4-fluoro-1-piperidyl)-2-(2-methylpyrim] [(+2,3-dichloro-N-(2-(4-fluoropiperidin-1-yl)-2-(2-methylpyrimidin-5-yl)ethyl)benzamide] gave an IC50 of 6.5 nM. As for `Cc1ncc(C(CNC(=O)c2ccccc2Cl)N2CCOCC2)cn1` (single isomer, unassigned; (-)) [(−)2-chloro-N-[2-(2-methylpyrimidin-5-yl)-2-morpholino-ethyl] [(−)2-chloro-N-(2-(2-methylpyrimidin-5-yl)-2-morpholinoethyl)benzamide], the IC50 is 110 nM. Then `Cc1ncc(C(CNC(=O)c2c(Cl)cccc2Cl)N2CCC(F)(F)CC2)cn1` (single isomer, unassigned; (+)) [(+)2,6-dichloro-N-[2-(4,4-difluoro-1-piperidyl)-2-(2-methylp] [(+)2,6-dichloro-N-(2-(4,4-difluoropiperidin-1-yl)-2-(2-methylpyrimidin-5-yl)ethyl)benzamide], with 19 nM; and `Cc1ncc(C(CNC(=O)c2cccc(OC(F)F)c2Cl)N2CCC(F)(F)CC2)cn1` (single isomer, unassigned; (+)) [(+)2-chloro-3-(difluoromethoxy)-N-[2-(4,4-difluoro-1-piperid] [(+)2-chloro-3-(difluoromethoxy)-N-(2-(4,4-difluoropiperidin-1-yl)-2-(2-methylpyrimidin-5-yl)ethyl)benzamide], with 7 nM. `COc1cccc(C(=O)NCC(c2cnc(C(F)(F)F)nc2)N2CCOCC2)c1Cl` (single isomer, unassigned; (-)) [(−)2-chloro-3-methoxy-N-[2-morpholino-2-[2-(trifluoromethyl)] [(−)2-chloro-3-methoxy-N-(2-morpholino-2-(2-(trifluoromethyl)pyrimidin-5-yl)ethyl)benzamide] had an IC50 of 8.2 nM.

`Cc1ncc(C(CNC(=O)c2cccc(F)c2Cl)N2CCCC(F)(F)C2)cn1` (single isomer, unassigned; (+)) [(+)2-chloro-N-[2-(3,3-difluoro-1-piperidyl)-2-(2-methylpyrim] [(+)2-chloro-3-fluoro-N-(2-(3,3-difluoropiperidin-1-yl)-2-(2-methylpyrimidin-5-yl)ethyl)benzamide] yielded an IC50 of 100 nM. As for `O=C(NCC(c1ccc(Cl)cc1)N1CCC(F)(F)CC1)c1cccc(Cl)c1Cl` (stereo not drawn) [N-[2-(4-Chloro-phenyl)-2-(4,4-difluoro-piperidin-1-yl)-ethyl]-2,3-dichloro-benzamide], the IC50 was found to be 46 nM. Then `COc1ccccc1C(=O)NCC(c1ccc(C(F)(F)F)nc1)N1CCOCC1` (single isomer, unassigned; (+)) [(+)-2-methoxy-N-(2-morpholino-2-(6-(trifluoromethyl)pyridin-] [(+)2-1\4ethoxy-N-[2-morpholin-4-yl-2-(6-trifluoromethyl-pyridin-3-yl)-ethyl]-benzamide], with 98 nM. Then `Cc1ncc(C(CNC(=O)c2c(Cl)cccc2Cl)N2CCC(F)CC2)cn1` (single isomer, unassigned; (+)) [(+)2,6-dichloro-N-[2-(4-fluoro-1-piperidyl)-2-(2-methylpyrim] [(+)2,6-dichloro-N-(2-(4-fluoropiperidin-1-yl)-2-(2-methylpyrimidin-5-yl)ethyl)benzamide], with 9.6 nM; and `Cn1cc(C(CNC(=O)c2cc(F)cc(Cl)c2Cl)N2CCC(F)(F)CC2)cn1` (single isomer, unassigned; (+)) [(+)2,3-dichloro-N-[2-(4,4-difluoro-1-piperidyl)-2-(1-methylp] [(+)2,3-dichloro-5-fluoro-N-(2-(4,4-difluoropiperidin-1-yl)-2-(1-methyl-1H-pyrazol-4-yl)ethyl)benzamide], with 34 nM. Then `Cc1ccc(C(CNC(=O)c2cccc(F)c2Cl)N2CCC(F)(F)CC2)cn1` (single isomer, unassigned; (-)) [(−)2-chloro-N-[2-(4,4-difluoro-1-piperidyl)-2-(6-methyl-3-pr] [(−)2-chloro-3-fluoro-N-(2-(4,4-difluoropiperidin-1-yl)-2-(2-methylpyridin-5-yl)ethyl)benzamide], with 21 nM.

The compound `O=C(NCC(c1cnc(C(F)F)nc1)N1CCOCC1)c1cccc(Cl)c1Cl` (single isomer, unassigned; (-)) [(−)2,3-dichloro-N-[2-[2-(difluoromethyl)pyrimidin-5-yl]-2-mo] [(−)2,3-dichloro-N-(2-(2-(difluoromethyl)pyrimidin-5-yl)-2-morpholinoethyl)benzamide] came in with an IC50 of 9.6 nM.

Compound `O=C(NCC(c1cnc(C(F)(F)F)nc1)N1CCC(F)(F)CC1)c1cccc(F)c1Cl` (single isomer, unassigned; (+)) [(+)2-chloro-N-[2-(4,4-difluoro-1-piperidyl)-2-[2-(trifluorom] [(+)2-chloro-N-(2-(4,4-difluoropiperidin-1-yl)-2-(2-(trifluoromethyl)pyrimidin-5-yl)ethyl)-3-fluorobenzamide] gave an IC50 of 1.7 nM. Against the preceding compound, the IC50 is about 5.6-fold lower.
